Read-outs that look alike come from different tables or passages of the source.
Experiments:
M2 muscarinic receptor = biological target: T1, M2 muscarinic receptor (Rattus norvegicus, UniProt P10980); assay: Radioligand binding assay, [3H]-N-methylscopolamine, rat heart membranes; details: [3H]-NMS
T1 construct: from tissue; host or cells: rat heart membrane homogenate
T1 sequence (P10980 1-466): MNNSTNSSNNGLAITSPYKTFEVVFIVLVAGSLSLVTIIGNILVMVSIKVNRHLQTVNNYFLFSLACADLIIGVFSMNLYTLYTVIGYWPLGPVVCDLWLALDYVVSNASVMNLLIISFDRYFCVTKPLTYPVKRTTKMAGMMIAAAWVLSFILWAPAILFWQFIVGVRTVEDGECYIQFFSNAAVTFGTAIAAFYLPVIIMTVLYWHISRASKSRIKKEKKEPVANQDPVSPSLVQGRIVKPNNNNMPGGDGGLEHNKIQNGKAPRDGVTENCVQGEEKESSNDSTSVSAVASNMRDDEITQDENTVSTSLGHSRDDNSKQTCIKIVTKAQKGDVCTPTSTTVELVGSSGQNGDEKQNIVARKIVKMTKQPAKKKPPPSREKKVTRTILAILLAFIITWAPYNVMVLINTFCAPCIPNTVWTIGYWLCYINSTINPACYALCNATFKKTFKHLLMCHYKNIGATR
Protocol: (§1) The affinity of test compounds for M2 and M3 muscarinic receptor subtypes was determined by [^3H]-N-methylscopolamine binding studies using rat heart and submandibular gland respectively as described by Moriya et al., (Life Sci, 1999, 64(25):2351-2358) with minor modifications.
(§2) Membrane preparation: Submandibular glands and heart were isolated and placed in ice cold homogenising buffer (HEPES 20 mM, 10 mM EDTA, pH 7.4) immediately after sacrifice. The tissues were homogenised in 10 volumes of homogenising buffer and the homogenate was filtered through two layers of wet gauze and filtrate was centrifuged at 500 g for 10 min. The supernatant was subsequently centrifuged at 40,000 g for 20 min. The pellet thus obtained was resuspended in same volume of assay buffer (HEPES 20 mM, EDTA 5 mM, pH 7.4) and were stored at −70° C. until the time of assay.
(§3) Ligand binding assay: The compounds were dissolved and diluted in DMSO. The membrane homogenates (150-250 μg protein) were incubated in 250 μl of assay buffer (HEPES 20 mM, pH 7.4) at 24-25° C. for 3 h. Non-specific binding was determined in the presence of 1 μM atropine. The incubation was terminated by vacuum filtration over GF/B fiber filters(Wallac). The filters were then washed with ice cold 50 mM Tris HCl buffer (pH 7.4). The filter mats were dried and bound radioactivity retained on filters was counted. The IC50 & Kd were estimated by using the non-linear curve fitting program using G Pad Prism software. The value of inhibition constant Ki was calculated from competitive binding studies by using Cheng & Prusoff equation (Biochem Pharmacol, 1973, 22: 3099-3108), Ki=IC50/(1+L/Kd), where L is the concentration of
(§4) [^3H]NMS used in the particular experiment.

M3 muscarinic receptor = biological target: T2, M3 muscarinic receptor (Rattus norvegicus, UniProt P08483); assay: Radioligand binding assay, [3H]-N-methylscopolamine, rat submandibular gland membranes; details: [3H]-NMS
T2 construct: from tissue; host or cells: rat submandibular gland membrane homogenate
T2 sequence (P08483 whole entry): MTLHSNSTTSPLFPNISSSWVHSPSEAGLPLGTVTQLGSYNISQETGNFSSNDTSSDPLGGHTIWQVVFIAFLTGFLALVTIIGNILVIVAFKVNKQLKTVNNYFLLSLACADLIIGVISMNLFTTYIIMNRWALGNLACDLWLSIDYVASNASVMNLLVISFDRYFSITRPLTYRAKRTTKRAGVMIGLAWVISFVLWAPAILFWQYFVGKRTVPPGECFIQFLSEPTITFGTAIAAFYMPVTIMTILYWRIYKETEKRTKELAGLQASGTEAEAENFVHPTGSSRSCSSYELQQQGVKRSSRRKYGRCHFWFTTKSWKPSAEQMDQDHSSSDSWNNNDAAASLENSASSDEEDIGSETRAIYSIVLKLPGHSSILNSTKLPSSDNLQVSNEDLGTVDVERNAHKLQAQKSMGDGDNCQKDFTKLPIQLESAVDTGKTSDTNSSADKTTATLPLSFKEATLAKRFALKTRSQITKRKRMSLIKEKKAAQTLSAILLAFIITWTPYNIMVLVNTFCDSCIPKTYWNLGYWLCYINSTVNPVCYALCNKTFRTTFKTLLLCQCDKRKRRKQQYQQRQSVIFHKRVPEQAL
Protocol: as §1, §2, §3, §4

isolated rat bladder = assay: Functional experiments using isolated rat bladder (carbachol-induced contraction); details: isolated rat bladder strips, carbachol concentration response curve
Protocol: Functional Experiments Using Isolated Rat Bladder:
Animals were euthanized by overdose of urethane and whole bladder was isolated and removed rapidly and placed in ice cold Tyrode buffer with the following composition (mMol/L) NaCl 137; KCl 2.7; CaCl2 1.8; MgCl2 0.1; NaHCO3 11.9; NaH2PO4 0.4; Glucose 5.55 and continuously gassed with 95% O2 and 5% CO2.
The bladder was cut into longitudinal strips (3 mm wide and 5-6 mm long) and mounted in 10 ml organ baths at 30° C., with one end connected to the base of the tissue holder and the other end connected to a polygraph through a force displacement transducer. Each tissue was maintained at a constant basal tension of 2 g and allowed to equilibrate for 1 hour during which the PSS was changed every 15 min. At the end of equilibration period the stabilization of the tissue contractile response was assessed with 1 μmol/L of Carbachol consecutively for 2-3 times. Subsequently a cumulative concentration response curve to carbachol (10^−9 mol/L to 3×10^−5 mol/L) was obtained. After several washes, once the baseline was achieved, cumulative concentration response curve was obtained in presence of NCE (NCE added 20 min. prior to the second CRC).
The contractile results were expressed as % of control E max. ED50 values were calculated by fitting a non-linear regression curve (Graph Pad Prism). pKB values were calculated by the formula pKB=−log [(molar concentration of antagonist/(dose ratio-1))]
• dose ratio=ED50 in the presence of antagonist/ED50 in the absence of antagonist.

[1] = read-out: Receptor Binding Assay M2 pKi (converted)
[2] = read-out: Receptor Binding Assay M3 pKi (converted)

Row | Compound | Ki (M2 muscarinic receptor; Receptor Binding Assay M2 pKi) [nM] | Ki (M3 muscarinic receptor; Receptor Binding Assay M3 pKi) [nM] | Functional Assay pKB (isolated rat bladder) | Ki (M2 muscarinic receptor; [1]) [nM] | Ki (M3 muscarinic receptor; [2]) [nM]
1 | O=C(NCC1C2CN(Cc3ccccc3)CC12)C(O)(c1ccccc1)C1CCC(NS(=O)(=O)c2ccc([N+](=O)[O-])cc2)C1 (single isomer, unassigned) [Compound No. 6, (2R)-(1α,5α,6α)-N-[3-benzyl-3-azabicyclo[3.1.0]hexyl-6-(aminomethyl)-yl]-2-[(1R or 1S, 3R or 3S)-3-(4-nitrophenyl)sulphonylaminocyclopentyl]-2-hydroxy-2-phenylacetamide] | > 1580 | 21.9 | 7.21 ± 0.20 | – | –
2 | O=C(COCc1ccccc1)NC1CCC(C(O)(C(=O)NCC2C3CN(Cc4ccccc4)CC23)c2ccccc2)C1 (single isomer, unassigned) [Compound No. 8, (2R)-(1α,5α,6α)-N-[3-benzyl-3-azabicyclo[3.1.0]hexyl-6-(aminomethyl)-yl]-2-[(1R or 1S, 3R or 3S)-3-benzyloxyacetylaminocyclopentyl]-2-hydroxy-2-phenylacetamide] | – | – | 7.08 ± 0.18 | 209 | 34.7
3 | O=C(NC[C@@H]1[C@H]2CN(Cc3ccccc3)C[C@@H]12)[C@](O)(c1ccccc1)C1CCC(NS(=O)(=O)c2ccccc2)C1 (stereo partly drawn) [Compound No. 7, (2R)-(1α,5α,6α)-N-[3-benzyl-3-azabicyclo[3.1.0]hexyl-6-(aminomethyl)-yl]-2-[(1R or 1S, 3R or 3S)-3-phenylsulphonylaminocyclopentyl]-2-hydroxy-2-phenylacetamide] | > 1580 | 50.1 | 6.89 ± 0.29 | – | –
4 | O=C(NC[C@@H]1[C@H]2CN(Cc3ccccc3)C[C@@H]12)[C@](O)(c1ccccc1)C1CCC(F)C1 (stereo partly drawn) [Compound No. 2, (2R(1α,5α,6α)-N-[3-benzyl-3-azabicyclo[3.1.0]hexyl-6-(aminomethyl)-yl]-2-[(1R or 1S, 3R or 3S)-3-fluorocyclopentyl]-2-hydroxy-2-phenylacetamide] | – | – | 8.84 ± 0.07 | 126 | 3.98
5 | COc1ccc(S(=O)(=O)NC2CCC([C@](O)(C(=O)NC[C@@H]3[C@H]4CN(Cc5ccccc5)C[C@@H]34)c3ccccc3)C2)cc1 (stereo partly drawn) [Compound No. 9, (2R)-(1α,5α,6α)-N-[3-benzyl-3-azabicyclo[3.1.0]hexyl-6-(aminomethyl)-yl]-2-[(1R or 1S, 3R or 3S)-3-(4-methoxyphenyl)sulphonylaminocyclopentyl]-2-hydroxy-2-phenylacetamide] | > 1000 | 204 | – | – | –
6 | O=C(NCC1C2CN(Cc3ccccc3)CC12)C(O)(c1ccccc1)C1CCC(F)C1 (single isomer, unassigned) [Compound No. 4, (2R or 2S)-(1α,5α,6α)-N-[3-benzyl-3-azabicyclo[3.1.0]hexyl-6-(aminomethyl)-yl]-2-[(1R or 1S, 3R or 3S)-3-fluorocyclopentyl]-2-hydroxy-2-phenyl acetamide] | – | – | 8.33 ± 0.15 | 138 | 5.89
7 | O=C(NC[C@@H]1[C@H]2CN(Cc3ccccc3)C[C@@H]12)[C@](O)(c1ccccc1)C1CCC(NS(=O)(=O)c2ccc(Br)cc2)C1 (stereo partly drawn) [Compound No. 10, (2R)-(1α,5α,6α)-N-[3-benzyl-3-azabicyclo[3.1.0]hexyl-6-(aminomethyl)-yl]-2-[(1R or 1S, 3R or 3S)-3-(4-bromophenyl)sulphonylaminocyclopentyl]-2-hydroxy-2-phenylacetamide] | > 1000 | 129 | – | – | –
8 | O=C(NCC1C2CN(Cc3ccccc3)CC12)C(O)(c1ccccc1)C1CCC(F)(F)C1 (mixture of isomers) [Compound No. 3, (2Ror 2S)-(1α,5α,6α)-N-[3-benzyl-3-azabicyclo[3.1.0]hexyl-6-(aminomethyl)-yl]-2-[(1R or 1S)-3,3-difluorocyclopentyl]-2-hydroxy-2-phenyl acetamide] | – | – | 8.55 ± 0.25 | 251 | 6.31
9 | O=C(Cc1ccccc1)NC1CCC([C@](O)(C(=O)NC[C@@H]2[C@H]3CN(Cc4ccccc4)C[C@@H]23)c2ccccc2)C1 (stereo partly drawn) [Compound No. 5, (2R)-(1α,5α,6α)-N-[3-benzyl-3-azabicyclo[3.1.0]hexyl-6-(aminomethyl)-yl]-2-[(1R or 1S, 3R or 3S)-3-phenylacetylaminocyclopentyl]-2-hydroxy-2-phenylacetamide] | – | – | 7.07 ± 0.11 | 832 | 39.8
10 | O=C(NC[C@@H]1[C@H]2CN(Cc3ccccc3)C[C@@H]12)[C@](O)(c1ccccc1)C1CCC(F)(F)C1 (single isomer, unassigned) [Compound No. 1B, (2R)-(1α,5α,6α)-N-[3-benzyl-3-azabicyclo[3.1.0]hexyl-6-(aminomethyl)-yl]-2-[(1R or 1S)-3,3-difluorocyclopentyl]-2-hydroxy-2-phenylacetamide] | – | – | 8.98 ± 0.06 | 229 | 6.17
11 | O=C(NC[C@@H]1[C@H]2CN(Cc3ccccc3)C[C@@H]12)[C@](O)(c1ccccc1)C1CCC(F)(F)C1 (single isomer, unassigned) [Compound No. 1A, (2R)-(1α,5α,6α)-N-[3-benzyl-3-azabicyclo[3.1.0]hexyl-6-(aminomethyl)-yl]-2-[(1R or 1S)-3,3-difluorocyclopentyl]-2-hydroxy-2-phenylacetamide] | – | – | 9.1 ± 0.2 | 135 | 5.62

— patent US7288562B2, “Fluoro and sulphonylamino containing 3,6-disubstituted azabicyclo (3.1.0) hexane derivatives as muscarinic receptor antagonists” (priority 2002, dated 2007)
